18 compounds from patent publication US12239643B2, “Therapeutic agent for inflammatory diseases, autoimmune diseases, fibrotic diseases, and cancer diseases” (MEIJI SEIKA PHARMA CO., LTD., priority 2018, dated 2025) can be followed below.

One series concerns PDE4. Kind of series: Evaluation of PDE4 inhibitory activity, scintillation proximity assay. It is filed as biochemical. Particulars: scintillation proximity assay. The method, boiled down: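 SPA with [2,8-3H]-cAMP and diluted PDE4 enzyme preparation in 50 mM Tris-HCl pH 7.4, 8.3 mM MgCl2, 1.7 mM EGTA, 3 mg/mL BSA, 120 min at room temperature. Product captured on ZnSO4-containing YSi-SPA beads, scintillation counted; IC50 from inhibition curves vs DMSO control and no-enzyme blank.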
(In a scintillation proximity assay essentially only radioactivity close to the scintillant gives light.)

A short description of series [1]: Hepatic metabolic stability (rat liver microsome method). Type of series: in vitro ADME. Particulars: rat liver microsomes 0.5 mg/mL, test substance 1 μM, NADPH 1 mM, 37° C., 30 minutes. How it is done: Metabolic stability in rat liver microsomes was evaluated by the following method. First, in 100 mM of potassium phosphate buffer solution (pH 7.4), liver microsomes (concentration at reaction: 0.5 mg/mL) and the test substance (concentration at reaction: 1 μM) were preincubated at 37° C. Five minutes later, 100 mM of potassium phosphate buffer (pH 7.4) solution of NADPH (concentration at reaction: 1 mM) was mixed thereto to start the reaction. After a predetermined time passed, acetonitrile was mixed to the reaction mixture to stop the reaction. Here, the reaction time was 0 and 30 minutes, and drug concentration measurement was performed for each time period using LC-MS. The % remaining value of the test compound was calculated from the value for 0 minutes and the value for 30 minutes, using the calculation formula below: % Remaining=(Value for 30 Minutes/Value for 0 Minutes)×100
The results of measuring the rat liver microsome metabolic Stability (% remaining for 30-minute reaction) for the test compound by the above method were evaluated in accordance with the following evaluated basis; A: a % remaining rate of 75% or more, B: 60% or more and less than 75%, C: 45% or more and less than 60%, and D: less than 45%.
Background: Microsomes from liver hold many membrane-bound enzymes, among them those of drug oxidation.

Setting [2] is: read-out: PDE4 Inhibitory Activity (Evaluation 1; concentration for the inhibition rate of 50%).
The mark [3] stands for this setting: class symbols of Evaluation 1, read-out: PDE4 Inhibitory Activity (concentration for the inhibition rate of 50%, IC50), Evaluation 1.

Like-named read-outs stand apart in the source and are kept apart here.

`O=C(NCCO)C(F)(F)Oc1ccc(-c2nccs2)c2oc(N3CC4CC(C3)N4)nc12` [Example 411, 2-((2-(3,6-Diazabicyclo[3.1.1]heptan-3-yl)-7-(thiazol-2-yl)benzo[d]oxazol-4-yl)oxy)-2,2-difluoro-N-(2-hydroxyethyl)acetamide]: the IC50 in the series on PDE4 (setting [2]) was < 100 nM. In addition, in series [1], the “Residual ratio (% remaining for 30-minute reaction)” value is on record as “A (A: a % remaining rate of 75% or more)”.
Turning to `O=C(c1ccc(-c2nccs2)c2oc(N3CC4CC(C3)N4)nc12)N1CCCC1` [Example 360, (2-(3,6-Diazabicyclo[3.1.1]heptan-3-yl)-7-(thiazol-2-yl)benzo[d]oxazol-4-yl) (pyrrolidin-1-yl)methanone], the IC50 in the series with PDE4 (setting [2]) is 100 to 1000 nM. The “Residual ratio (% remaining for 30-minute reaction)” value in series [1] is given as “A (A: a % remaining rate of 75% or more)”.
Regarding `O=C(N1CCOCC1)C(F)(F)Oc1ccc(-c2nccs2)c2oc(N3CC4CC(C3)N4)nc12` [Example 409, 2-((2-(3,6-Diazabicyclo[3.1.1]heptan-3-yl)-7-(thiazol-2-yl)benzo[d]oxazol-4-yl)oxy)-2,2-difluoro-1-morpholinoethan-1-one], in the series on PDE4 (setting [2]), the IC50 is < 100 nM. Further, the “Residual ratio (% remaining for 30-minute reaction)” value in series [1] was “B (B: 60% or more and less than 75%)”.
With `OC1CC(Oc2ccc(-c3nccs3)c3oc(N4CC5CC(C4)N5)nc23)C1` (stereo not drawn) [Example 285, 3-((2-(3,6-Diazabicyclo[3.1.1]heptan-3-yl)-7-(thiazol-2-yl)benzo[d]oxazol-4-yl)oxy)cyclobutan-1-ol], the IC50 with PDE4 (setting [2]) was < 100 nM. Also, the “Residual ratio (% remaining for 30-minute reaction)” value in series [1] is “A (A: a % remaining rate of 75% or more)”.
For `CS(=O)(=O)c1ccc(-c2nccs2)c2oc(N3CC4CC(C3)N4)nc12` [Example 347, 2-(3,6-Diazabicyclo[3.1.1]heptan-3-yl)-4-(methylsulfonyl)-7-(thiazol-2-yl)benzo[d]oxazole] the same measures were < 100 nM and “A (A: a % remaining rate of 75% or more)”.
For the compound `CC(C)(O)C(F)(F)Oc1c(Cl)cc(-c2nccs2)c2oc(N3CC4CC(C3)N4)nc12` [Example 400, 1-((2-(3,6-Diazabicyclo[3.1.1]heptan-3-yl)-5-chloro-7-(thiazol-2-yl)benzo[d]oxazol-4-yl)oxy)-1,1-difluoro-2-methylpropan-2-ol], the IC50 with PDE4 (setting [2]) was < 100 nM. Also, the “Residual ratio (% remaining for 30-minute reaction)” value in series [1] was “B (B: 60% or more and less than 75%)”.
On to `OCC(F)(F)Oc1ccc(-c2nccs2)c2oc(N3CC4CCC(C3)N4)nc12` [Example 404, 2-((2-(3,8-Diazabicyclo[3.2.1]octan-3-yl)-7-(thiazol-2-yl)benzo[d]oxazol-4-yl)oxy)-2,2-difluoroethan-1-ol], for which the IC50 in the series with PDE4 (setting [2]) is < 100 nM. Besides, the “Residual ratio (% remaining for 30-minute reaction)” value in series [1] was “B (B: 60% or more and less than 75%)”.
In the case of `c1cc(-c2nccs2)c2oc(N3CC4CC(C3)N4)nc2c1` [Example 382, 2-(3,6-Diazabicyclo[3.1.1]heptan-3-yl)-7-(thiazol-2-yl)benzo[d]oxazole], the IC50 in the series with PDE4 (setting [2]) is < 100 nM. Besides, the “Residual ratio (% remaining for 30-minute reaction)” value in series [1] was “B (B: 60% or more and less than 75%)”.
For `N#Cc1ccc(-c2nccs2)c2oc(N3CC4CC(C3)N4)nc12` [Example 335, 2-(3,6-Diazabicyclo[3.1.1]heptan-3-yl)-7-(thiazol-2-yl)benzo[d]oxazole-4-carbonitrile], in the series with PDE4 (setting [2]), the IC50 was < 100 nM. Moreover, the “Residual ratio (% remaining for 30-minute reaction)” value in series [1] is given as “A (A: a % remaining rate of 75% or more)”.
Regarding `c1csc(-c2ccc(OC3CCOCC3)c3nc(N4CC5CCC(C4)N5)oc23)n1` [Example 254, 2-(3,8-Diazabicyclo[3.2.1]octan-3-yl)-4-((tetrahydro-2H-pyran-4-yl)oxy)-7-(thiazol-2-yl)benzo[d]oxazole], the IC50 with PDE4 (setting [2]) was < 100 nM. For the same compound, in series [1], the “Residual ratio (% remaining for 30-minute reaction)” value is “A (A: a % remaining rate of 75% or more)”.
For the compound `FC(F)(F)C(OCc1nnn[nH]1)c1ccc(-c2nccs2)c2oc(N3CC4CCC(C3)N4)nc12` (stereo not drawn) [Example 230, 4-(1-((1H-tetrazol-5-yl)methoxy)-2,2,2-trifluoroethyl)-2-(3,8-diazabicyclo[3.2.1]octan-3-yl)-7-(thiazol-2-yl)benzo[d]oxazole], the IC50 with PDE4 (setting [2]) was < 100 nM. Further, in series [1], the “Residual ratio (% remaining for 30-minute reaction)” value is on record as “A (A: a % remaining rate of 75% or more)”.
On to `NC(=O)C(F)(F)Oc1ccc(-c2nccs2)c2oc(N3CC4CC(C3)N4)nc12` [Example 410, 2-((2-(3,6-Diazabicyclo[3.1.1]heptan-3-yl)-7-(thiazol-2-yl)benzo[d]oxazol-4-yl)oxy)-2,2-difluoroacetamide], for which the IC50 in the series with PDE4 (setting [2]) is < 100 nM. Besides, the “Residual ratio (% remaining for 30-minute reaction)” value in series [1] is reported as “A (A: a % remaining rate of 75% or more)”.
As to `FC(F)(F)c1c(Cl)cc(-n2cccn2)c2oc(N3CC4CC(C3)N4)nc12` [Example 17, 2-(3,6-Diazabicyclo[3.1.1]heptan-3-yl)-5-chloro-7-(1H-pyrazol-1-yl)-4-(trifluoromethyl)benzo[d]oxazole], the IC50 with PDE4 (setting [3]) was < 100 nM. Besides, the “Residual ratio (% remaining for 30-minute reaction)” value in series [1] is “B (B: 60% or more and less than 75%)”.
With `OC(c1cc(-c2nccs2)c2oc(N3CC4CCC(C3)N4)nc2c1)C(F)F` (stereo not drawn) [Example 104, 1-(2-(3,8-Diazabicyclo[3.2.1]octan-3-yl)-7-(thiazol-2-yl)benzo[d]oxazol-5-yl)-2,2-difluoroethan-1-ol], the IC50 in the series on PDE4 (setting [3]) was < 100 nM. Also, in series [1], the “Residual ratio (% remaining for 30-minute reaction)” value was “B (B: 60% or more and less than 75%)”.
Regarding `CCC(O)C(F)(F)Oc1ccc(-c2nccs2)c2oc(N3CC4CC(C3)N4)nc12` (stereo not drawn) [Example 395, 1-((2-(3,6-Diazabicyclo[3.1.1]heptan-3-yl)-7-(thiazol-2-yl)benzo[d]oxazol-4-yl)oxy)-1,1-difluorobutan-2-ol], in the series with PDE4 (setting [2]), the IC50 was < 100 nM. The “Residual ratio (% remaining for 30-minute reaction)” value in series [1] is “B (B: 60% or more and less than 75%)”.
With `c1csc(-c2ccc(OC3CCOCC3)c3nc(N4CC5CC(C4)N5)oc23)n1` [Example 294, 2-(3,6-Diazabicyclo[3.1.1]heptan-3-yl)-4-((tetrahydro-2H-pyran-4-yl)oxy)-7-(thiazol-2-yl)benzo[d]oxazole], the IC50 in the series on PDE4 (setting [2]) was < 100 nM. In series [1], the “Residual ratio (% remaining for 30-minute reaction)” value was “A (A: a % remaining rate of 75% or more)”.
Take `Cn1ccc(-c2ccc(OC(F)(F)C(C)(C)O)c3nc(N4CC5CC(C4)N5)oc23)n1` [Example 394, 1-((2-(3,6-Diazabicyclo[3.1.1]heptan-3-yl)-7-(1-methyl-1H-pyrazol-3-yl)benzo[d]oxazol-4-yl)oxy)-1,1-difluoro-2-methylpropan-2-ol]: the IC50 in the series on PDE4 (setting [2]) was 100 to 1000 nM. Besides, the “Residual ratio (% remaining for 30-minute reaction)” value in series [1] is listed as “A (A: a % remaining rate of 75% or more)”.
For `CC(O)(CO)C(F)(F)Oc1ccc(-c2nccs2)c2oc(N3CC4CC(C3)N4)nc12` (single isomer, unassigned) [Example 365, 3-((2-(3,6-Diazabicyclo[3.1.1]heptan-3-yl)-7-(thiazol-2-yl)benzo[d]oxazol-4-yl)oxy)-3,3-difluoro-2-methylpropane-1,2-diol] the same measures were < 100 nM and “A (A: a % remaining rate of 75% or more)”.
